Article PMC4980245 (Environmental and molecular mutagenesis, 2016)

Experiments:
[1] = Precipitation/solubility limit of the top test concentration; details: for top non-precipitating conc.: precipitation in 100× stock solution or upon addition to culture medium
[2] = tested on: γH2AX; assay: MultiFlow DNA Damage Kit flow cytometry, γH2AX in TK6 cells with rat liver S9; format: cell-based; details: 4 hr exposure with 2% rat liver S9
[3] = tested on: TK6 cells; assay: MultiFlow flow cytometry, polyploidy; format: cell-based; details: TK6 cells with rat liver S9
[4] = tested on: Phospho-Histone H3; assay: MultiFlow DNA Damage Kit flow cytometry, phospho-histone H3; format: cell-based; details: TK6 cells with rat liver S9; effect particularly evident at 24 hrs for PhIP
[5] = tested on: p53; format: cell-based; details: 24 hr time point; TK6 cells, 4 hr exposure with 2% rat liver S9
[6] = tested on: HepG2 cells; details: cited from earlier work
[7] = tested on: male rat kidney; details: due to α2μ-globulin nephropathy; ref Kirkland et al., 2015; cited from earlier work
[8] = tested on: TK6 cells; assay: Cytotoxicity by relative nuclei counts; format: cell-based; details: TK6 cells with rat liver S9

CC(=O)Nc1ccc2c(c1)Cc1ccccc1-2 [2-Acetylaminofluorene] gave a top non-precipitating conc. [1] of 250 µM.
Nc1ccc2cc3ccccc3cc2c1 [2-Aminoanthracene] gave a top non-precipitating conc. [1] of 500 µM.
In the case of O=[N+]([O-])c1ccc2c(c1)Cc1ccccc1-2 [2-Nitrofluorene], the γH2AX-associated fluorescence response ([2]; 4 hr time point) is reported as “robust responses” and the γH2AX-associated fluorescence response ([2]; 24 hr time point) is reported as “considerably reduced”.
With Cn1c(N)nc2ncc(-c3ccccc3)cc21 [2-amino-1-methyl-6-phenylimidazo [4,5-b]pyridine] the γH2AX-associated fluorescence response ([2]; 4 hr time point) was “concentration-related increases”, the γH2AX-associated fluorescence response ([2]; 24 hr time point) was “concentration-related increases” and the polyploid cells [3] was “not induced”. The top non-precipitating conc. [1] was 250 µM, the “proportion of mitotic (p-H3 positive) cells” value [4] was “concentration-dependent reductions” and the p53 response [5] was “higher p53 responses at 24 hr relative to the 4 hr time point”.
In the case of Cc1cc2ncccc2c2nc(N)n(C)c12 [3,4-Dimethylimidazo[4,5-f]quinolin-2-amine], the “induction of MN in HepG2 cells” value [6] is listed as “weak inducer”.
With c1ccc2c(c1)cc1ccc3cccc4ccc2c1c34 [Benzo[a]pyrene] the top non-precipitating conc. [1] was 250 µM.
For C=C(C)[C@H]1CC=C(C)CC1 [D-Limonene], the tumor finding [7] is listed as “male rat kidney tumors”.
In the case of CN(C)P(=O)(N(C)C)N(C)C [Hexamethylphosphoramide], the “cytotoxicity (reductions to RNC)” value [8] is reported as “no evidence of cytotoxicity” and the “proportion of mitotic (p-H3 positive) cells” value [4] is reported as “no evidence of cytotoxicity”.
In the case of CCN(CC)N=O [N-Nitrosodiethylamine (DEN), N-Nitrosodiethylamine], the “cytotoxicity (reductions to RNC)” value [8] is reported as “no evidence of cytotoxicity” and the “proportion of mitotic (p-H3 positive) cells” value [4] is reported as “no evidence of cytotoxicity”.
For Tunicamycin, the “top conc. due to solubility” value [1] was 500 µM.
